Laboratory results published in article PMC8896310 (Cell, 2022).

How the values were obtained:
BVU_0767 = biological target: T1, BVU_0767 (Phocaeicola vulgatus, UniProt A6KYF7); test: DTNB thioesterase assay, […] nm; type: biochemical; conditions: 100 uM acyl-CoA, 25 nM enzyme, 60 mM potassium phosphate pH 7.4, 37 C
T1 sequence (A6KYF7 1-137): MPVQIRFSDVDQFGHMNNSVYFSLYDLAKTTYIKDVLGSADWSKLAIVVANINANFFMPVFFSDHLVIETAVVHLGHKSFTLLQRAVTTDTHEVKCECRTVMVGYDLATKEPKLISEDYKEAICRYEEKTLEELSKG

BT_3942 = biological target: T2, BT_3942 (Bacteroides thetaiotaomicron, UniProt Q8A0S9); test: DTNB thioesterase assay, […] nm; type: biochemical; conditions: 100 uM acyl-CoA, 25 nM enzyme, 60 mM potassium phosphate pH 7.4, 37 C
T2 sequence (Q8A0S9 1-145): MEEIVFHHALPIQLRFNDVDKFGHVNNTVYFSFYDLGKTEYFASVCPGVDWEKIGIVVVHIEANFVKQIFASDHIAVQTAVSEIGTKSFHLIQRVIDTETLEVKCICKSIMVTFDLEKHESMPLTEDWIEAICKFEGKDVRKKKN

## CCCC(=O)SCCNC(=O)CCNC(=O)[C@H](O)C(C)(C)COP(=O)(O)OP(=O)(O)OC[C@H]1O[C@@H](n2cnc3c(N)ncnc32)[C@H](O)[C@@H]1OP(=O)(O)O [butyryl-CoA]
BVU_0767
  DTNB thioesterase assay, 412 nm: different substrate specificity for hydrolysis of short chain lengths of Acyl-CoAs and propionyl- and butyryl-CoA

## CCC(=O)SCCNC(=O)CCNC(=O)[C@H](O)C(C)(C)COP(=O)(O)OP(=O)(O)OC[C@H]1O[C@@H](n2cnc3c(N)ncnc32)[C@H](O)[C@@H]1OP(=O)(O)O [propionyl-CoA]
BVU_0767
  DTNB thioesterase assay, 412 nm: different substrate specificity for hydrolysis of short chain lengths of Acyl-CoAs and propionyl- and butyryl-CoA
BT_3942
  DTNB thioesterase assay, 412 nm: different substrate specificity for hydrolysis of short chain lengths of Acyl-CoAs and propionyl- and butyryl-CoA
